Test results from patent US9259406B2, “Antitumor combinations containing antibodies recognizing specifically CD38 and melphalan” (SANOFI, priority 2008, dated 2016).
Several values for one entry are separate records, joined by “and”; a condition that tells them apart may be missing. Identical values can stand only once. Entries after “also recorded” stand apart in the source; their conditions may differ. Like-named read-outs stand apart in the source and are kept apart here.

What was measured:
[1] = system: human multiple myeloma LP1
[2] = system: human multiple myeloma RPMI-8226
murine CD38 = target: T1, murine CD38 (Mus musculus, UniProt P56528); test: cross-reactivity of the antibody with murine CD38; format: binding
T1 sequence (P56528 1-304): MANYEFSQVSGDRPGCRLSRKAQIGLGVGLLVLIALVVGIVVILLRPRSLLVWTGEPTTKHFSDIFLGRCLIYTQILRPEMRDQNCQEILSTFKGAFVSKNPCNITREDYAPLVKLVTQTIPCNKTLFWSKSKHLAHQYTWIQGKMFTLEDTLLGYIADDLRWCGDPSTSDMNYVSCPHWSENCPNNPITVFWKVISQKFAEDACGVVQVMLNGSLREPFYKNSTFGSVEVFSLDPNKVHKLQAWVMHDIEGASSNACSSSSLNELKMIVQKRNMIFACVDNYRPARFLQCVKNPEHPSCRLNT

[3] = melphalan IV 3.8 mg/kg/inj (total 15.2), days 12, 15, 18, 21
[4] = melphalan IV 6.2 mg/kg/inj (total 24.8), days 12, 15, 18, 21
[5] = melphalan IV 10.0 mg/kg/inj (total 40.0), days 12, 15, 18, 21
[6] = melphalan IV 16.1 mg/kg/inj (total 48.3), treatments stopped on day 18
[7] = melphalan alone IV, total injected dose 40 mg/kg
[8] = melphalan IV 3.8 mg/kg/inj (total 15.2), days 16, 19, 22, 25
[9] = melphalan IV 6.2 mg/kg/inj (total 24.8), days 16, 19, 22, 25
[10] = melphalan IV 10.0 mg/kg/inj (total 40.0), days 16, 19, 22, 25
[11] = hu38SB19 IV 40.0 mg/kg/inj (total 160.0), days 12, 15, 18, 21

N[C@@H](Cc1ccc(N(CCCl)CCCl)cc1)C(=O)O [melphalan]
Comments [1, 3]: Moderately active | T-C in days (1000 mg) [1, 3]: 4.1 days | log10 cell kill gross [1, 3]: 0.8 | % BWC at nadir (day) ([1]; melphalan IV 3.8 mg/kg/inj (total 15.2), days 12, 15, 18, 21, nadir day 22): +7.0% | Comments [1, 4]: Highly active | T-C in days (1000 mg) [1, 4]: 17.4 days | log10 cell kill gross [1, 4]: 3.5 | % BWC at nadir (day) ([1]; melphalan IV 6.2 mg/kg/inj (total 24.8), days 12, 15, 18, 21, nadir day 24): −3.0% | T-C in days (1000 mg) [1, 5]: 46.5 days | log10 cell kill gross [1, 5]: 9.3 | % BWC at nadir (day) ([1]; melphalan IV 10.0 mg/kg/inj (total 40.0), days 12, 15, 18, 21, nadir day 24): −14.6% | Comments [1, 6]: Toxic | drug-related deaths [1, 6]: 4/5 | % BWC at nadir (day) ([1]; melphalan IV 16.1 mg/kg/inj (total 48.3), treatments stopped on day 18, nadir day 22): −33.6% | body weight loss at nadir ([1]; melphalan alone 16.1 mg/kg/injection, nadir on day 22): 33.6% | HNTD [1, 7]: 10 mg/kg/inj | Comments [2, 8]: Moderately active | Drug death [2, 8]: 0/5 | T-C in days (1000 mg) [2, 8]: 8.5 days | log10 cell kill [2, 8]: 0.8 | % BWC at nadir (day) ([2]; melphalan IV 3.8 mg/kg/inj (total 15.2), days 16, 19, 22, 25, nadir day 17): −1.2% | Comments [2, 9]: Active | Drug death [2, 9]: 0/5 | T-C in days (1000 mg) [2, 9]: 9.5 days | log10 cell kill [2, 9]: 0.9 | % BWC at nadir (day) ([2]; melphalan IV 6.2 mg/kg/inj (total 24.8), days 16, 19, 22, 25, nadir day 32): −3.5% | Drug death [2, 10]: 0/5 | T-C in days (1000 mg) [2, 10]: 20.0 days | log10 cell kill [2, 10]: 1.9 | Comments ([2]; melphalan IV 10.0 mg/kg/inj (total 40.0), days 16, 19, 22, 25, 10 mg/kg): HNTD, active | % BWC at nadir (day) ([2]; melphalan IV 10.0 mg/kg/inj (total 40.0), days 16, 19, 22, 25, nadir day 26): −12.2% | Comments ([2]; melphalan IV 16.1 mg/kg/inj (total 32.2), days 16, 19): Toxic | Drug death ([2]; melphalan IV 16.1 mg/kg/inj (total 32.2), days 16, 19, 16.1 mg/kg): 3 and 3/5 | % BWC at nadir (day) ([2]; melphalan IV 16.1 mg/kg/inj (total 32.2), days 16, 19, nadir day 26): −33.4% | highest nontoxic dose (HNTD) [2, 7]: 10 mg/kg/inj

hu38SB19: humanized version of anti-CD38 monoclonal antibody 38SB19; heavy chain CDRs SEQ ID NOS: 13, 81, 15, light chain CDRs SEQ ID NOS: 16, 17, 18
cross-reactivity with murine CD38 (murine CD38): lack of cross-reactivity | T-C in days (1000 mg) [1, 11]: 1.1 days | log10 cell kill gross [1, 11]: 0.2 | Comments ([1]; hu38SB19 IV 40.0 mg/kg/inj (total 160.0), days 12, 15, 18, 21, 40 mg/kg): not active; also recorded: HDT-inactive | tolerability ([1]; mouse, in vivo, 40 mg/kg): well tolerated | % BWC at nadir (day) ([1]; mouse, in vivo, iv, 40 mg/kg): +15.9% | tolerability ([2]; mouse, in vivo, 40 mg/kg): well tolerated | % BWC at nadir (day) ([2]; mouse, in vivo, iv, 40 mg/kg): +5.3% | Comments ([2]; mouse, in vivo, iv, 40 mg/kg): not active; also recorded: HDT-inactive | Drug death ([2]; mouse, in vivo, iv, 40 mg/kg): 0/5 | T-C in days (1000 mg) ([2]; mouse, in vivo, iv, 40 mg/kg): 5.2 days | log10 cell kill ([2]; mouse, in vivo, iv, 40 mg/kg): 0.5
